Test results as given in patent publication US10030020B2, “Spirocycle compounds and methods of making and using same” (Abide Therapeutics, Inc., priority 2016, dated 2018).

Columns and labels:
ABHD6 [1] = biological target: T1, ABHD6 (Mus musculus (Mouse), UniProt Q8R2Y0); assay: In vitro competitive activity-based protein profiling (mouse brain membrane fraction or cell lysates), ABHD6 band; type: biochemical; conditions: mouse proteome; for inhibition at 1 µM: read-out: ABHD6 % Inh 1 μM (mouse); for IC50: competitive ABPP
Procedure, shortened: (§1)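 Residual hydrolase activity was measured as gel band fluorescence after FP-Rh labelling (30 min, 37° C) of proteomes pretreated 30 min at 37° C with inhibitor.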

FAAH [2] = biological target: T2, FAAH (Mus musculus (Mouse), UniProt O08914); assay: In vitro competitive activity-based protein profiling (mouse brain membrane fraction or cell lysates), FAAH band; type: biochemical; conditions: mouse proteome; for inhibition at 1 µM: read-out: FAAH % Inh 1 μM (mouse); for IC50: competitive ABPP
Procedure, shortened: as §1

MAGL [3] = biological target: MAGL (Homo sapiens (Human), UniProt Q99685); assay: In vitro competitive activity-based protein profiling (human prefrontal cortex or cell membrane fractions; hMAGL expressed in HEK293T cells); type: biochemical; conditions: human proteome, competitive ABPP
Method: In Vitro Competitive Activity-Based Protein Profiling (Human).
Proteomes (human prefrontal cortex or cell membrane fractions) (50 μL, 1.0-2.0 mg/mL total protein concentration) were preincubated with varying concentrations of inhibitors at 37° C. After 30 min, FP—Rh or JW912 (1.0 μL, 50 μM in DMSO) was added and the mixture was incubated for another 30 min at room temperature. Reactions were quenched with SDS loading buffer (15 μL-4×) and run on SDS-PAGE.
Recombinant Expression of Human MAGL in HEK293T Cells.
Cell lysates were diluted with mock proteomes for use in competitive ABPP experiments.

MAGL [4] = biological target: T3, MAGL (Mus musculus (Mouse), UniProt O35678); assay: In vitro competitive activity-based protein profiling (mouse brain membrane fraction or cell lysates), MAGL band; type: biochemical; conditions: mouse proteome; for inhibition at 1 µM: read-out: MAGL % Inh 1 μM (mouse); for IC50: competitive ABPP
Method: In Vitro Competitive Activity-Based Protein Profiling.
Proteomes (mouse brain membrane fraction or cell lysates) (50 μL, 1.0 mg/mL total protein concentration) were preincubated with varying concentrations of inhibitors at 37° C. After 30 min, FP—Rh (1.0 μL, 50 μM in DMSO) was added and the mixture was incubated for another 30 min at 37° C. Reactions were quenched with SDS loading buffer (50 μL-4×) and run on SDS-PAGE.

ABHD6 [5] = biological target: T1, ABHD6; assay: Mouse brain proteomes from inhibitor treated mice (oral gavage, sacrificed 4 h after administration, ABPP analysis), ABHD6; type: in vivo, mouse (C57Bl/6J); conditions: 5 mg/kg oral gavage
Procedure, shortened: (§2)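 Wild-type C57Bl/6J mice were dosed by oral gavage in vehicle (e.g. PEG400/Ethanol/PBS 7/2/1) and sacrificed 4 h later. Brain proteomes were analysed by activity-based protein profiling; values are % inhibition at 5 mg/kg.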

FAAH [6] = biological target: T2, FAAH; assay: Mouse brain proteomes from inhibitor treated mice (oral gavage, sacrificed 4 h after administration, ABPP analysis), FAAH; type: in vivo, mouse (C57Bl/6J); conditions: 5 mg/kg oral gavage
Procedure, shortened: as §2

MAGL [7] = biological target: T3, MAGL; assay: Mouse brain proteomes from inhibitor treated mice (oral gavage, sacrificed 4 h after administration, ABPP analysis); type: in vivo, mouse (C57Bl/6J); conditions: 5 mg/kg oral gavage
Procedure, shortened: as §2

T2 sequence (O08914 whole entry): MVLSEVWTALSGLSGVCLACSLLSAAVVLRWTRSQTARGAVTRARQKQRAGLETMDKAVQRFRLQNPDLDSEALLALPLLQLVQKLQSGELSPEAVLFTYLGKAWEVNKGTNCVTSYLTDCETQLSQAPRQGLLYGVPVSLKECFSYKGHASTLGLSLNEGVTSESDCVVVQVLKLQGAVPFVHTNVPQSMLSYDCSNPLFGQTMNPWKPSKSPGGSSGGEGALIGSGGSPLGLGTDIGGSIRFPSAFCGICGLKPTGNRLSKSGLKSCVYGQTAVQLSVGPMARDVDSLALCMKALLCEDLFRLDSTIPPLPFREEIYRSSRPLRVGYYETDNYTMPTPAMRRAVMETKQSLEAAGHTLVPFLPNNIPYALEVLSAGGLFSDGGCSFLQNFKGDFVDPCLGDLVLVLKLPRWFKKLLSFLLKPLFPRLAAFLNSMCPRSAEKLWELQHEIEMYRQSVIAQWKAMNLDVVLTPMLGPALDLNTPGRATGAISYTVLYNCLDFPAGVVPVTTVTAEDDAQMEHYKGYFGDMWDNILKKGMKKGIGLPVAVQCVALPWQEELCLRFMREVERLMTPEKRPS
T1 sequence (Q8R2Y0 whole entry): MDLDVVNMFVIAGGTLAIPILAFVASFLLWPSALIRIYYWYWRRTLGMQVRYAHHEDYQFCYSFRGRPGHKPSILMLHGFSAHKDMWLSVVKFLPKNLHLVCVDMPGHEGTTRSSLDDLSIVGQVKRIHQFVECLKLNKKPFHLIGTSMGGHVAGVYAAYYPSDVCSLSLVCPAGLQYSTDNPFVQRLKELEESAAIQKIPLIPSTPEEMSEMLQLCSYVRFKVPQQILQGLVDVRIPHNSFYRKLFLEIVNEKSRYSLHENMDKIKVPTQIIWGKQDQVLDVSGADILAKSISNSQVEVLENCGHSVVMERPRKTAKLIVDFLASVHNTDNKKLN
T3 sequence (O35678 whole entry): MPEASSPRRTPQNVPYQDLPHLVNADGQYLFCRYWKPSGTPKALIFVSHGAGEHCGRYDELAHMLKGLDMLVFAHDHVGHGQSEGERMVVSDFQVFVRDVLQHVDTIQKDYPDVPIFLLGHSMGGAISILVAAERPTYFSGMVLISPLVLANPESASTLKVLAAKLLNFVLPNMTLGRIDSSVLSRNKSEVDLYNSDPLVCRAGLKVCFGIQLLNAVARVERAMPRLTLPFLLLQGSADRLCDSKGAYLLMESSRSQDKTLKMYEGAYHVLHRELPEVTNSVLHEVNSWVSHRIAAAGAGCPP
Sequence of MAGL (Homo sapiens (Human), UniProt Q99685) (Q99685 whole entry): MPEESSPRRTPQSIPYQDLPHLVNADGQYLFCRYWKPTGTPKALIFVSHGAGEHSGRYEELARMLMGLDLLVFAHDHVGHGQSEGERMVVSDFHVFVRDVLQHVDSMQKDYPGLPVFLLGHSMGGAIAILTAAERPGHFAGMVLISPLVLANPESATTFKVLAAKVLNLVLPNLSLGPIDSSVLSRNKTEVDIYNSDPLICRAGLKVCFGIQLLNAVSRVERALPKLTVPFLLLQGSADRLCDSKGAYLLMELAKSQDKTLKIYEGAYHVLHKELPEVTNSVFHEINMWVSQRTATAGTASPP

| SMILES | inhibition at 1 µM (ABHD6 [1]) [%] | IC50 (ABHD6 [1]) [nM] | inhibition at 1 µM (FAAH [2]) [%] | IC50 (FAAH [2]) [nM] | IC50 (MAGL [3]) [nM] | inhibition at 1 µM (MAGL [4]) [%] | IC50 (MAGL [4]) [nM] | ABHD6 % Inh 5 mg/kg (mouse) (ABHD6 [5]) | FAAH % Inh 5 mg/kg (mouse) (FAAH [6]) | MAGL % Inh 5 mg/kg (mouse) (MAGL [7]) |
| --- | --- | --- | --- | --- | --- | --- | --- | --- | --- | --- |
| COC(=O)C1CCN(c2cc(C(F)(F)F)ccc2CN2CC3(CCN(C(=O)OC(C(F)(F)F)C(F)(F)F)CC3)CC2(C)C)CC1 [Example 53, 1,1,1,3,3,3-Hexafluoropropan-2-yl 2-(2-(4-(methoxycarbonyl)piperidin-1-yl)-4-(trifluoromethyl)benzyl)-3,3-dimethyl-2,8-diazaspiro[4.5]decane-8-carboxylate] | < 25 | > 1000 | < 25 | > 1000 | < 100 | > 75 | 100 to 1000 | – | – | – |
| O=C(COc1cc(CN2CCCC23CCN(C(=O)OC(C(F)(F)F)C(F)(F)F)CC3)cc(C(F)(F)F)c1)N1CCCC1 [Example 168, 1,1,1,3,3,3-Hexafluoropropan-2-yl 1-(3-(2-oxo-2-(pyrrolidin-1-yl)ethoxy)-5-(trifluoromethyl)benzyl)-1,8-diazaspiro[4.5]decane-8-carboxylate] | < 25 | > 1000 | < 25 | > 1000 | – | > 75 | < 100 | # (# is <25%) | # (# is <25%) | ## (## is equal to or greater than 25% but less than 75%) |
| O=C(OC(C(F)(F)F)C(F)(F)F)N1CCC2(CCCN2Cc2cc(OC3CCOCC3)cc(C(F)(F)F)c2)CC1 [Example 170, 1,1,1,3,3,3-Hexafluoropropan-2-yl 1-(3-(tetrahydro-2H-pyran-4-yloxy)-5-(trifluoromethyl)benzyl)-1,8-diazaspiro[4.5]decane-8-carboxylate] | < 25 | > 1000 | < 25 | > 1000 | – | > 75 | < 100 | # (# is <25%) | # (# is <25%) | ## (## is equal to or greater than 25% but less than 75%) |
| O=C(OC(C(F)(F)F)C(F)(F)F)N1CCC2(CCCN2Cc2cc(Oc3nc4ccccc4s3)cc(C(F)(F)F)c2)CC1 [Example 172, 1,1,1,3,3,3-Hexafluoropropan-2-yl 1-(3-(benzo[d]thiazol-2-yloxy)-5-(trifluoromethyl)benzyl)-1,8-diazaspiro[4.5]decane-8-carboxylate] | < 25 | > 1000 | < 25 | > 1000 | – | > 75 | < 100 | # (# is <25%) | # (# is <25%) | # (# is <25%) |
| O=C(OC(C(F)(F)F)C(F)(F)F)N1CCC2(CCCN2Cc2ccc(C(F)(F)F)cc2Oc2cccnc2)CC1 [Example 173, 1,1,1,3,3,3-Hexafluoropropan-2-yl 1-(2-(pyridin-3-yloxy)-4-(trifluoromethyl)benzyl)-1,8-diazaspiro[4.5]decane-8-carboxylate] | 25 to 75 | > 1000 | < 25 | > 1000 | – | > 75 | < 100 | # (# is <25%) | # (# is <25%) | ## (## is equal to or greater than 25% but less than 75%) |
| O=C(OC(C(F)(F)F)C(F)(F)F)N1CCC2(CCCN2Cc2cc(Oc3cccnc3)cc(C(F)(F)F)c2)CC1 [Example 174, 1,1,1,3,3,3-Hexafluoropropan-2-yl 1-(3-(pyridin-3-yloxy)-5-(trifluoromethyl)benzyl)-1,8-diazaspiro[4.5]decane-8-carboxylate] | 25 to 75 | > 1000 | < 25 | > 1000 | – | > 75 | < 100 | # (# is <25%) | # (# is <25%) | ## (## is equal to or greater than 25% but less than 75%) |
| O=C(OC(C(F)(F)F)C(F)(F)F)N1CCC2(CCCN2Cc2cc(OC3CCS(=O)(=O)CC3)cc(C(F)(F)F)c2)CC1 [Example 176, 1,1,1,3,3,3-Hexafluoropropan-2-yl 1-(3-((1,1-dioxidotetrahydro-2H-thiopyran-4-yl)oxy)-5-(trifluoromethyl)benzyl)-1,8-diazaspiro[4.5]decane-8-carboxylate] | < 25 | > 1000 | < 25 | > 1000 | – | > 75 | < 100 | # (# is <25%) | # (# is <25%) | ## (## is equal to or greater than 25% but less than 75%) |
| Cc1cc(CN2CCCC23CCN(C(=O)OC(C(F)(F)F)C(F)(F)F)CC3)ccc1C(F)(F)F [Example 177, 1,1,1,3,3,3-Hexafluoropropan-2-yl 1-(3-methyl-4-(trifluoromethyl)benzyl)-1,8-diazaspiro[4.5]decane-8-carboxylate] | 25 to 75 | > 1000 | < 25 | > 1000 | – | > 75 | 100 to 1000 | # (# is <25%) | # (# is <25%) | ### (### is ≥75%) |
| NC(=O)c1cc(CN2CCCC23CCN(C(=O)OC(C(F)(F)F)C(F)(F)F)CC3)ccc1C(F)(F)F [Example 178, 1,1,1,3,3,3-hexafluoropropan-2-yl 1-(3-carbamoyl-4-(trifluoromethyl)benzyl)-1,8-diazaspiro[4.5]decane-8-carboxylate] | 25 to 75 | > 1000 | < 25 | > 1000 | < 100 | > 75 | < 100 | – | – | – |
| Cc1ccc(CN2CCCC23CCN(C(=O)OC(C(F)(F)F)C(F)(F)F)CC3)cc1C(F)(F)F [Example 180, 1,1,1,3,3,3-Hexafluoropropan-2-yl 1-(4-methyl-3-(trifluoromethyl)benzyl)-1,8-diazaspiro[4.5]decane-8-carboxylate] | < 25 | > 1000 | < 25 | > 1000 | – | > 75 | < 100 | ## (## is equal to or greater than 25% but less than 75%) | ## (## is equal to or greater than 25% but less than 75%) | ### (### is ≥75%) |
| O=C(OC(C(F)(F)F)C(F)(F)F)N1CCC2(CCCN2Cc2ccc(C(F)(F)F)c(Cl)c2)CC1 [Example 183, 1,1,1,3,3,3-Hexafluoropropan-2-yl 1-(3-chloro-4-(trifluoromethyl)benzyl)-1,8-diazaspiro[4.5]decane-8-carboxylate] | 25 to 75 | > 1000 | < 25 | > 1000 | – | > 75 | < 100 | # (# is <25%) | # (# is <25%) | ### (### is ≥75%) |
| O=C(OC(C(F)(F)F)C(F)(F)F)N1CCC2(CCCN2Cc2ccc(Cl)c(C(F)(F)F)c2)CC1 [Example 184, 1,1,1,3,3,3-Hexafluoropropan-2-yl 1-(4-chloro-3-(trifluoromethyl)benzyl)-1,8-diazaspiro[4.5]decane-8-carboxylate] | < 25 | > 1000 | < 25 | > 1000 | – | > 75 | < 100 | # (# is <25%) | # (# is <25%) | ### (### is ≥75%) |
| CN1CCN(c2c(Cl)cccc2CN2CC3(CCN(C(=O)OC(C(F)(F)F)C(F)(F)F)CC3)CC2(C)C)CC1 [Example 189, 1,1,1,3,3,3-Hexafluoropropan-2-yl 2-(3-chloro-2-(4-methylpiperazin-1-yl)benzyl)-3,3-dimethyl-2,8-diazaspiro[4.5]decane-8-carboxylate] | 25 to 75 | 100 to 1000 | < 25 | > 1000 | – | > 75 | < 100 | # (# is <25%) | # (# is <25%) | ## (## is equal to or greater than 25% but less than 75%) |
